Read-outs that look alike come from different tables or passages of the source.
What was measured:
[1] = cited from earlier work
[2] = low solubility, high permeability drug; cited from earlier work
[3] = Pharmacokinetic study, oral capsule, crossover, fasted beagle dogs; conditions: male, dog, plasma, 100 mg
Protocol: (§1) A crossover study was carried out using 5 male beagle dogs with a washout period of 5 days between each treatment. Prior to dosing, the dogs were fasted overnight. The capsules were accurately filled with the amount of cilostazol or the corresponding cocrystal that was equivalent to 100 mg cilostazol. The capsules were orally administered to the dogs followed by about 10 mL of water. Food (about 250 g) was provided 4 hours post-dose to all animals.
(§2) Blood samples were collected at pre-dose, 15 and 30 minutes, and 1, 2, 3, 4, 6, 8, 10, 12 and 24 hour post-dose (12 time points) following oral dose administration. Approximately 0.8 ml of whole blood was withdrawn from the cephalic vein and placed in labelled tubes containing sodium heparin as anticoagulant (20 μL of 400 IU/mL sodium heparin solution per mL of blood). Plasma was separated by centrifuging the whole blood at about 2500 g for 10 minutes at 4° C. Separated plasma was stored below −70° C. until analysis.
(§3) A fit for purpose LC-MS/MS method was used for the determination of the cilostazol concentrations in the plasma samples. Pharmacokinetic parameters from individual samples were calculated using the non-compartmental analysis tool of the WinNonlin® software (version 5.2). The area under the plasma concentration curve (AUC) was calculated using the linear trapezoidal rule. Peak plasma concentration (Cmax) and the time taken to reach the peak plasma concentration (Tmax) were the observed values.

[4] = dog, in vivo, po, 100 mg
Protocol: as §1, §2, §3

[5] = Gravimetric vapour sorption (GVS) moisture sorption isotherm; assay type: physicochemical; conditions: for moisture reversibly adsorbed: across the 0-90% relative humidity range at 25° C. under nitrogen; for solid form by XRPD analysis after completion of the isotherm: after GVS cycle 0-90% RH; for solid form by XRPD analysis after completion of the isotherm / hygroscopicity: 25° C.; for hygroscopicity: conclusion from GVS isotherm, 0-90% RH
Protocol: Sorption isotherms were obtained using a SMS DVS Intrinsic moisture sorption analyser, controlled by DVS Intrinsic Control software v1.0.0.30. The sample temperature was maintained at 25° C. by the instrument controls. The humidity was controlled by mixing streams of dry and wet nitrogen, with a total flow rate of 200 ml·min^−1 The relative humidity was measured by a calibrated Rotronic probe (dynamic range of 1.0-100% RH), located near the sample. The weight change, (mass relaxation) of the sample as a function of % RH was constantly monitored by the microbalance (accuracy ±0.005 mg).
Typically 5-20 mg of sample was placed in a tared mesh stainless steel basket under ambient conditions. The sample was loaded and unloaded at 40% RH and 25° C. (typical room conditions). A moisture sorption isotherm was performed as outlined in Table 1 (2 scans giving 1 complete cycle). The standard isotherm was performed at 25° C. at 10% RH intervals over a 0.5-90% RH range. Data analysis was undertaken in Microsoft Excel using DVS Analysis Suite v6.0.0.7. The sample was recovered after completion of the isotherm and re-analyzed by XRPD.

AUC [4] [ng·h/mL]	Cmax [4] [ng/mL]	Tmax [4] [h]	moisture reversibly adsorbed [5] [% w/w]	solid form by XRPD analysis after completion of the isotherm [5]	hygroscopicity [5]	Structure (SMILES)	solubility ([1]; in 0.1N HCl)	solubility ([1]; in 0.1N NaOH)	solubility ([1]; in ethanol)	solubility ([1]; in methanol)	solubility ([1]; in water)	BCS class [2]	AUC [3] [ng·h/mL]	Cmax [3] [ng/mL]	Tmax [3] [h]
						O=C1CCc2cc(OCCCCc3nnnn3C3CCCCC3)ccc2N1 [Cilostazol, 6-[4-(1-cyclohexyl-1H-tetrazol-5-yl)butoxy]-3,4-dihydro-2(1H)-quinolinone]	practically insoluble	practically insoluble	slightly soluble	slightly soluble	practically insoluble	Class II	371	81.5	2
1216.37	471.42	1.00	< 0.3	unchanged	not hygroscopic	O=C(O)c1cc(O)ccc1O.O=C1CCc2cc(OCCCCc3nnnn3C3CCCCC3)ccc2N1 [1:1 cilostazol gentisic acid cocrystal]									
			0.1	unchanged	not hygroscopic	O.O=C(O)c1cc(O)ccc1O.O=C1CCc2cc(OCCCCc3nnnn3C3CCCCC3)ccc2N1									

Source: patent publication US8779146B2, “Cilostazol cocrystals and compositions” (Nuformix Limited, priority 2010, dated 2014)
